Measured values reported in patent publication US20150274719A1, “AMINO-SUBSTITUTED IMIDAZO[1,2-A]PYRIDINECARBOXAMIDES AND THEIR USE” (BAYER PHARMA AKTIENGESELLSCHAFT, priority 2012, published 2015).
Where a name gives a salt, the structure may show the parent alone. Read-outs that look alike come from different tables or passages of the source.

Assays:
[1] = target: T1, recombinant guanylate cyclase reporter cell line (Rattus norvegicus, UniProt P19686+P20595); assay: Action on recombinant guanylate cyclase reporter cell line; assay type: cell-based; conditions: in some cases mean values from individual determinations
T1 construct: expressed in transfected cells; host or cells: recombinant reporter cell line
T1 sequence (P19686 1-690): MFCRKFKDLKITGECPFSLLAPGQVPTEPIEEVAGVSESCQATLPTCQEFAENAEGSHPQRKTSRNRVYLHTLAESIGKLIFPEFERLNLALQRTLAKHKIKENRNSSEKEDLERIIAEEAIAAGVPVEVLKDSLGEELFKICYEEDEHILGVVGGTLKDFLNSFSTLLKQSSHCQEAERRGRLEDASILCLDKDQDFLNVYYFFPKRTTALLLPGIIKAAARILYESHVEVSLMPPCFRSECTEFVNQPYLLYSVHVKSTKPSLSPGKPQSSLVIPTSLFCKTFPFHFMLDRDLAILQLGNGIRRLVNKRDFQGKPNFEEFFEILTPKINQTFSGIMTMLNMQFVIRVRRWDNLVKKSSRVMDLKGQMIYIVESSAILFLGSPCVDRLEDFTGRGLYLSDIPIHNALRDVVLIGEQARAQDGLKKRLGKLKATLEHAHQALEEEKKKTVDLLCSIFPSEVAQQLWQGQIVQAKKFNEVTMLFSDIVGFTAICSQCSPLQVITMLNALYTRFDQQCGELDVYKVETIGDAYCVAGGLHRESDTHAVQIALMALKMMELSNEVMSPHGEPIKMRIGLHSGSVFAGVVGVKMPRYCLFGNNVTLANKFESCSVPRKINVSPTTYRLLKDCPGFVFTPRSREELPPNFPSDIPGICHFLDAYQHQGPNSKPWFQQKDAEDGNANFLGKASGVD
T1 sequence (P20595 1-619): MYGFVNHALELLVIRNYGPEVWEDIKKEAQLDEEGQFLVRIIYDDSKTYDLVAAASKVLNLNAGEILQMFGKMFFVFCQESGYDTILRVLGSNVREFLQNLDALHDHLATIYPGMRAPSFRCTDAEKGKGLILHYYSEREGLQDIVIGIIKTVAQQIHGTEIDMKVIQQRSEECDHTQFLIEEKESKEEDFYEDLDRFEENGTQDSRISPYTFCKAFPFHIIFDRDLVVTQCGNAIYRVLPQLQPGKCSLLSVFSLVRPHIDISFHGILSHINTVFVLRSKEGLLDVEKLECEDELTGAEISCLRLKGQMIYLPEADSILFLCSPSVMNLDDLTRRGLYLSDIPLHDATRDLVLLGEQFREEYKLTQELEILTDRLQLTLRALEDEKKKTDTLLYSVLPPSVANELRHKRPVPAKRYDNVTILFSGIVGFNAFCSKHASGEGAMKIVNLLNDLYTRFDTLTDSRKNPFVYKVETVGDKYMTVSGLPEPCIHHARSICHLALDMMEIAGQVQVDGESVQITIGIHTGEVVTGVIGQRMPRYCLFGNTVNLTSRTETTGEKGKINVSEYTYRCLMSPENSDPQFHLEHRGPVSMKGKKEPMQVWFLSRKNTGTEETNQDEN
Method in brief: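 Reported value is the minimal effective concentration (MEC), in some cases a mean of single runs, taken from a recombinant rat guanylate cyclase reporter cell line.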

[2] = Determination of pharmacokinetic parameters following intravenous and oral administration (rats); assay type: in vivo, male Wistar rats; conditions: intravenous administration in rats
Experimental: B-6. Determination of Pharmacokinetic Parameters Following Intravenous and Oral Administration
The pharmacokinetic parameters of the compounds according to the invention are determined in male CD-1 mice, male Wistar rats and female beagles. Intravenous administration in the case of mice and rats is carried out by means of a species-specific plasma/DMSO formulation, and in the case of dogs by means of a water/PEG400/ethanol formulation. In all species, oral administration of the dissolved substance is performed via gavage, based on a water/PEG400/ethanol formulation. The taking of blood from rats is simplified by inserting a silicone catheter into the right Vena jugularis externa prior to substance administration. The operation is carried out at least one day prior to the experiment with […] and administration of an analgesic (atropin/Rimadyl (3/1) 0.1 ml s.c.). The blood is taken (generally more than 10 time points) within a time window including terminal time points of at least 24 to a maximum of 72 hours after substance administration. When the blood is taken, it is passed into heparinised tubes. Then the blood plasma is obtained by centrifugation and is optionally stored at −20° C. until further processing.
An internal standard (which may also be a chemically unrelated substance) is added to the samples of the compounds according to the invention, calibration samples and qualifiers, and there follows protein precipitation by means of excess acetone. Addition of a buffer solution matched to the LC conditions, and subsequent vortexing, is followed by centrifugation at 1000 g. The supernatant is analysed by LC-MS/MS using C18 reversed-phase columns and variable mobile phase mixtures. The substances are quantified via the peak heights or areas from extracted ion chromatograms of specific selected ion monitoring experiments.
The plasma concentration/time plots determined are used to calculate the pharmacokinetic parameters such as AUC, Cmax, t1/2 (terminal half life), F (bioavailability), MRT (mean residence time) and CL (clearance), using a validated pharmacokinetic calculation program.
Since the substance quantification is carried out in plasma, it is necessary to determine the blood/plasma distribution of the substance in order to be able to adjust the pharmacokinetic parameters correspondingly. For this purpose, a defined amount of substance is incubated in heparinized whole blood of the species in question in a rocking roller mixture for 20 min. After centrifugation at 1000 g, the plasma concentration is measured (by means of LC-MS/MS; see above) and determined by calculating the ratio of the Cblood/Cplasma value.

[3] = male, Wistar, rat, plasma, iv, read-out: MRT

Structure (SMILES) | MEC (minimal effective concentration) [1] [µM] | AUCnorm [2] [kg·h/L] | CLblood [2] [mL/min/kg] | half-life ([2]; male, Wistar, rat, plasma, iv) [h] | MRT [2, 3] [h] | MRT [2] [h] | t1/2 [2] [h]
Cc1nc2c(OCc3c(F)cccc3F)cc(Cl)cn2c1C(=O)NCC(C)(C)N [Example 73, N-(2-Amino-2-methylpropyl)-6-chloro-8-[(2,6-difluorobenzyl)oxy]-2-methylimidazo[1,2-a]-pyridine-3-carboxamide] | 0.30 | 1.55 | 8.5 | 8.6 | 11.8 |  | 
Cc1nc2c(OCc3c(F)cccc3F)cc(Cl)cn2c1C(=O)NCC1(N)CCC1 [Example 155, N-[(1-aminocyclobutyl)methyl]-6-chloro-8-[(2,6-difluorobenzyl)oxy]-2-methylimidazo[1,2-a]-pyridine-3-carboxamide trifluoroacetate] | 0.30 | 0.97 | 21.2 | 7.7 | 11.2 |  | 
Cc1cc(OCc2c(F)cccc2F)c2nc(C)c(C(=O)NC[C@H]3CCCCN3)n2c1 [Example 173, 8-[(2,6-Difluorobenzyl)oxy]-2,6-dimethyl-N-[(2R)-piperidin-2-ylmethyl]imidazo[1,2-a]pyridine-3-carboxamide] | 0.30 | 0.54 | 28 | 3.3 | 3.9 |  | 

Continued, values first:

MEC (minimal effective concentration) [1] [µM] | AUCnorm [2] [kg·h/L] | CLblood [2] [mL/min/kg] | half-life ([2]; male, Wistar, rat, plasma, iv) [h] | MRT [2, 3] [h] | MRT [2] [h] | t1/2 [2] [h] | Structure (SMILES)
0.3 | 0.38 | 41.8 | 4.4 | 6.8 |  |  | CCCC(C)(N)CNC(=O)c1c(C)nc2c(OCc3c(F)cccc3F)cc(C(F)F)cn12 (single isomer, unassigned; enantiomer b) [Example 289, ent-N-(2-amino-2-methylpentyl)-8-[(2,6-difluorobenzyl)oxy]-6-(difluoromethyl)-2-methyl-imidazo[1,2-a]pyridine-3-carboxamide Formate (Enantiomer B)]
0.03 | 0.56 | 36.2 |  |  | 4.1 | 3.2 | Cc1nc2c(OCc3c(F)cccc3F)cc(C(F)F)cn2c1C(=O)NCC(C)(N)CF (single isomer, unassigned; enantiomer b) [Example 292, ent-N-(2-amino-3-fluoro-2-methylpropyl)-8-[(2,6-difluorobenzyl)oxy]-6-(difluoromethyl)-2-methylimidazo[1,2-a]pyridine-3-carboxamide (Enantiomer B)]
0.10 | 0.70 | 21.2 | 2.9 | 4.5 |  |  | Cc1cc(OCc2c(F)ccc(F)c2F)c2nc(C)c(C(=O)NCC(C)(C)N)n2c1 [Example 276, N-(2-Amino-2-methylpropyl)-2,6-dimethyl-8-[(2,3,6-trifluorobenzyl)oxy]imidazo[1,2-a]pyridine-3-carboxamide]
0.65 | 0.35 | 29.7 | 6.9 | 9.8 |  |  | Cc1cc(OCc2c(F)cccc2F)c2nc(C)c(C(=O)NCC3(N)CCCCC3)n2c1 [Example 307, N-[(1-aminocyclohexyl)methyl]-8-[(2,6-difluorobenzyl)oxy]-2,6-dimethylimidazo[1,2-a]pyridine-3-carboxamide]
0.10 | 0.61 | 16.3 | 10.3 | 13.9 |  |  | C#Cc1cc(OCc2c(F)cccc2F)c2nc(C)c(C(=O)NCC(C)(N)CCC)n2c1 (stereo not drawn) [Example 356, ent-N-(2-amino-2-methylpentyl)-8-[(2,6-difluorobenzyl)oxy]-6-ethynyl-2-methylimidazo[1,2-a]pyridine-3-carboxamide]
